Test results from patent US11911393B2, “Non-catalytic substrate-selective p38alpha-specific MAPK inhibitors with endothelial-stabilizing and anti-inflammatory activity, and methods of use thereof” (University of Maryland, Baltimore, priority 2016, dated 2024).
Entries after “also recorded” stand apart in the source; their conditions may differ.

Legend:
[1] = target: T1, p38β (Homo sapiens, UniProt Q15759); test: DSF, binding to p38β; details: DSF melting temperature, concentration series
T1 construct: HA (N); made in house; host or cells: E. coli BL21
T1 sequence (Q15759 whole entry): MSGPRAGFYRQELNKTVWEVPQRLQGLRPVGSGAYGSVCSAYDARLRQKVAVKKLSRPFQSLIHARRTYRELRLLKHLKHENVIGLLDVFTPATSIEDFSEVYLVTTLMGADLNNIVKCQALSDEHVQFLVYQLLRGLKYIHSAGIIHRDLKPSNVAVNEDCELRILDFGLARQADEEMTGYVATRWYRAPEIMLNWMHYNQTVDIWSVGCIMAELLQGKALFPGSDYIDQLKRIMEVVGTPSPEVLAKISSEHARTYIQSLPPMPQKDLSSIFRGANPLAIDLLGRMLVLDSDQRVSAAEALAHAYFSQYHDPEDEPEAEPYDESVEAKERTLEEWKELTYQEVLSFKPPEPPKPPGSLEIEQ

[2] = system: p38-dependent phosphorylation of MK2 and Stat-1 in HeLa cells; test: Inhibition of substrate phosphorylation (immunoblot); type: cell-based, human; details: 10 μM SB203580 or 50 μM UM101 for 30 min
Description: Cell extracts prepared in RIPA buffer containing protease and phosphatase inhibitors were resolved by SDS-PAGE, transferred to PVDF membrane, blocked with 5% nonfat dry milk, probed with primary antibodies against phosphorylated MK2 and Stat-1, and total p38α as a loading control. Bands were detected using secondary antibodies conjugated to infrared fluorophores and infrared fluorescence imaging (Odyssey; LICOR).

SMILES: C[S+]([O-])c1ccc(-c2nc(-c3ccncc3)c(-c3ccc(F)cc3)[nH]2)cc1 (stereo not drawn) [SB203580, reference compound]
- stabilization of p38β in DSF (binding), in words [1]: stabilized both p38α and p38β
- anisomycin-stimulated phosphorylation of MK2, in words [2]: failed to completely block MK2 phosphorylation; also recorded: reduced
- anisomycin-stimulated phosphorylation of Stat-1, in words [2]: reduced
